Measurements from patent publication US20240393292A1, “ALLERGY ANTIGEN AND EPITOPE THEREOF” (HOYU CO., LTD., priority 2019, published 2024).

Tested on: IgE antibodies from patients
Test: Wheat epitope mapping (2): overlapping 10-amino-acid peptide fragments shifted by one amino acid;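 on Rank of partial sequence as epitope binding to IgE antibody: key = sequence deemed particularly important within the common 15-residue sequence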;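 on epitope sequence binding to IgE antibody, rank (Key/Preferably/More preferably): key of grades: preferably = shorter partial sequence still acting as epitope; more preferably = sequence improving IgE binding; key = particularly important sequence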
Format: binding, human
In short: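 Residual binding was banded as <30% none, 30–<50% poor, 50–<70% somewhat poor and ≥70% retained, relative to the parent overlapping sequence set to 100%. Values were chemiluminescent IgE signals from patient sera after subtracting secondary-antibody-only controls. The peptides were spot-synthesised 10-mers shifted by one amino acid.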

[1] = serum of patient G7 (adult, general immediate type allergy to wheat), partial sequence
[2] = serum of patient P24 (WDEIA), partial sequence
[3] = serum of patient G7 (adult, general immediate type allergy to wheat), sequence without X
[4] = serum of patient P51 (child, general immediate type allergy to wheat), sequence without X
[5] = serum of patient P4 (WDEIA), sequence without X
[6] = serum of patient P32 (WDEIA), sequence without X

Substance: 1194 (QQQQFPPQ; REGION 1..8: note = epitope) [compound 1194]
- Epitope sequence binding to IgE antibody, rank of the sequence (serum of patient P22 (WDEIA), sequence without X): Key

Substance: 1837 (VRTLQRT; REGION 1..7: note = epitope) [compound 1837]
- epitope sequence binding to IgE antibody, rank (Key/Preferably/More preferably) (serum of patient P3 (WDEIA)): Preferably

Substance: 1755 (YLKK; REGION 1..4: note = epitope) [compound 1755]
- epitope sequence binding to IgE antibody, rank (Key/Preferably/More preferably) (serum of patient P7 (WDEIA)): Key

Substance: 1246 (PQQPP; REGION 1..5: note = epitope) [compound 1246]
- Epitope sequence binding to IgE antibody, rank of the sequence (serum of patient P31 (WDEIA), sequence without X): Key

Substance: 2742 (YKIGGIGTVP; REGION 1..10: note = epitope) [compound 2742]
- Epitope sequence binding to IgE antibody, rank of the sequence (serum of patient P33 (WDEIA), partial sequence): Preferably

Substance: 2746 (KIGGI; REGION 1..5: note = epitope) [compound 2746]
- Epitope sequence binding to IgE antibody, rank of the sequence (serum of patient P34 (WDEIA), partial sequence): Key

Substance: 1710 (KEAANFTS; REGION 1..8: note = epitope) [compound 1710]
- epitope sequence binding to IgE antibody, rank (Key/Preferably/More preferably) (serum of patient P34 (WDEIA)): More preferably

Substance: 1718 (EAANFT; REGION 1..6: note = epitope) [compound 1718]
- epitope sequence binding to IgE antibody, rank (Key/Preferably/More preferably) (serum of patient P36 (WDEIA)): More preferably

Substance: 1661 (FVPISG; REGION 1..6: note = epitope) [compound 1661]
- Rank of partial sequence as epitope binding to IgE antibody (serum of patient G1 (adult, general immediate type allergy to wheat), sequence without X): Key

Substance: 2627 (LLASLSKRV; REGION 1..9: note = epitope) [compound 2627]
- Epitope sequence binding to IgE antibody, rank of the sequence [1]: Key

Substance: 1555 (QVPLVQQQ; REGION 1..8: note = epitope) [compound 1555]
- Rank of partial sequence as epitope binding to IgE antibody (serum of patient P35 (WDEIA), sequence without X): Preferably

Substance: 1356 (INVEN; REGION 1..5: note = epitope) [compound 1356]
- Epitope sequence binding to IgE antibody, rank of the sequence (serum of patient P36 (WDEIA), sequence without X): Preferably

Substance: 1918 (QVPLVQQQQ; REGION 1..9: note = epitope) [compound 1918]
- epitope sequence binding to IgE antibody, rank (Key/Preferably/More preferably) (serum of patient P10 (WDEIA)): Preferably

Substance: 1716 (SQVIIM; REGION 1..6: note = epitope) [compound 1716]
- epitope sequence binding to IgE antibody, rank (Key/Preferably/More preferably) (serum of patient P35 (WDEIA)): Key

Substance: 1764 (KEVSSYLKKV; REGION 1..10: note = epitope) [compound 1764]
- epitope sequence binding to IgE antibody, rank (Key/Preferably/More preferably) (serum of patient P30 (WDEIA)): Key

Substance: 1933 (VPLVQQ; REGION 1..6: note = epitope) [compound 1933]
- epitope sequence binding to IgE antibody, rank (Key/Preferably/More preferably) (serum of patient P17 (WDEIA)): Key

Substance: 1780 (YLKKVG; REGION 1..6: note = epitope) [compound 1780]
- epitope sequence binding to IgE antibody, rank (Key/Preferably/More preferably) (serum of patient G3 (adult, general immediate type allergy to wheat)): Key

Substance: 1520 (QVPLVQQ; REGION 1..7: note = epitope) [compound 1520]
- Rank of partial sequence as epitope binding to IgE antibody (serum of patient P8 (WDEIA), sequence without X): Preferably

Substance: 2549 (QLVQQLCC; REGION 1..8: note = epitope) [compound 2549]
- Epitope sequence binding to IgE antibody, rank of the sequence (serum of patient P2 (WDEIA), partial sequence): Key

Substance: 1846 (TVRTLQR; REGION 1..7: note = epitope) [compound 1846]
- epitope sequence binding to IgE antibody, rank (Key/Preferably/More preferably) (serum of patient P12 (WDEIA)): Key

Substance: 1792 (SGKELE; REGION 1..6: note = epitope) [compound 1792]
- epitope sequence binding to IgE antibody, rank (Key/Preferably/More preferably) (serum of patient P8 (WDEIA)): Key

Substance: 2616 (AKPLL; REGION 1..5: note = epitope) [compound 2616]
- Epitope sequence binding to IgE antibody, rank of the sequence [2]: Key

Substance: 1742 (KEAAN; REGION 1..5: note = epitope) [compound 1742]
- epitope sequence binding to IgE antibody, rank (Key/Preferably/More preferably) (serum of patient G4 (adult, general immediate type allergy to wheat)): Preferably

Substance: 2610 (LQQSTYQLV; REGION 1..9: note = epitope) [compound 2610]
- Epitope sequence binding to IgE antibody, rank of the sequence (serum of patient G9 (adult, general immediate type allergy to wheat), partial sequence): Key

Substance: 2226 (RNYR; REGION 1..4: note = epitope) [compound 2226]
- Epitope sequence binding to IgE antibody, rank of the sequence (Key/Preferably/More preferably) (serum of patient P17 (WDEIA), sequence without X): Key

Substance: 1869 (YTVRTLQRT; REGION 1..9: note = epitope) [compound 1869]
- epitope sequence binding to IgE antibody, rank (Key/Preferably/More preferably) (serum of patient P29 (WDEIA)): More preferably

Substance: 2417 (RCAYVTEIVL; REGION 1..10: note = epitope) [compound 2417]
- Epitope sequence binding to IgE antibody, rank of the sequence (Key/Preferably/More preferably) [3]: Preferably

Substance: 1655 (FVPISG; REGION 1..6: note = epitope) [compound 1655]
- Rank of partial sequence as epitope binding to IgE antibody [4]: Key

Substance: 2649 (KEAAE; REGION 1..5: note = epitope) [compound 2649]
- Epitope sequence binding to IgE antibody, rank of the sequence (serum of patient P29 (WDEIA), partial sequence): Preferably

Substance: 1922 (QVPLVQQ; REGION 1..7: note = epitope) [compound 1922]
- epitope sequence binding to IgE antibody, rank (Key/Preferably/More preferably) (serum of patient P12 (WDEIA)): Key

Substance: 2543 (VSFQPSQLN; REGION 1..9: note = epitope) [compound 2543]
- Epitope sequence binding to IgE antibody, rank of the sequence [1]: Preferably

Substance: 1958 (QQFPGQQQ; REGION 1..8: note = epitope) [compound 1958]
- epitope sequence binding to IgE antibody, rank (Key/Preferably/More preferably) (serum of patient P28 (WDEIA)): More preferably

Substance: 2625 (ASLSKRV; REGION 1..7: note = epitope) [compound 2625]
- Epitope sequence binding to IgE antibody, rank of the sequence (serum of patient G3 (adult, general immediate type allergy to wheat), partial sequence): Preferably

Substance: 1514 (QVPLVQQQQ; REGION 1..9: note = epitope) [compound 1514]
- Rank of partial sequence as epitope binding to IgE antibody [5]: Preferably

Substance: 1818 (PKFL; REGION 1..4: note = epitope) [compound 1818]
- epitope sequence binding to IgE antibody, rank (Key/Preferably/More preferably) (serum of patient P32 (WDEIA)): Key

Substance: 1340 (NVEN; REGION 1..4: note = epitope) [compound 1340]
- Epitope sequence binding to IgE antibody, rank of the sequence [6]: Key

Substance: 1371 (QPLPPQQQP; REGION 1..9: note = epitope) [compound 1371]
- Epitope sequence binding to IgE antibody, rank of the sequence [5]: Preferably

Substance: 1620 (YNPDKV; REGION 1..6: note = epitope) [compound 1620]
- Rank of partial sequence as epitope binding to IgE antibody (serum of patient P24 (WDEIA), sequence without X): Preferably

Substance: 1577 (PFPQTQQ; REGION 1..7: note = epitope) [compound 1577]
- Rank of partial sequence as epitope binding to IgE antibody (serum of patient P16 (WDEIA), sequence without X): More preferably

Substance: 2574 (QLVQQL; REGION 1..6: note = epitope) [compound 2574]
- Epitope sequence binding to IgE antibody, rank of the sequence (serum of patient P28 (WDEIA), partial sequence): Preferably

Substance: 2405 (RCAYVTEIVL; REGION 1..10: note = epitope) [compound 2405]
- Epitope sequence binding to IgE antibody, rank of the sequence (Key/Preferably/More preferably/Further preferably) (serum of patient P50 (child, general immediate type allergy to wheat), sequence without X): More preferably

Substance: 1909 (VPLVQ; REGION 1..5: note = epitope) [compound 1909]
- epitope sequence binding to IgE antibody, rank (Key/Preferably/More preferably) (serum of patient P7 (WDEIA)): Key

Substance: 1370 (QPLPPQQ; REGION 1..7: note = epitope) [compound 1370]
- Epitope sequence binding to IgE antibody, rank of the sequence (Key/Preferably/More preferably/Further preferably) (serum of patient P2 (WDEIA), sequence without X): Key

Substance: 1750 (KEAANFT; REGION 1..7: note = epitope) [compound 1750]
- epitope sequence binding to IgE antibody, rank (Key/Preferably/More preferably) (serum of patient G7 (adult, general immediate type allergy to wheat)): Key

Substance: 2301 (LGGIDK; REGION 1..6: note = epitope) [compound 2301]
- Epitope sequence binding to IgE antibody, rank of the sequence (Key/Preferably/More preferably) (serum of patient G4 (adult, general immediate type allergy to wheat), sequence without X): Key

Substance: 1361 (NVEN; REGION 1..4: note = epitope) [compound 1361]
- Epitope sequence binding to IgE antibody, rank of the sequence [4]: Key

Substance: 1773 (EVSSYLKK; REGION 1..8: note = epitope) [compound 1773]
- epitope sequence binding to IgE antibody, rank (Key/Preferably/More preferably) (serum of patient P55 (child, general immediate type allergy to wheat)): Key

Substance: 2388 (RCAYVTEIV; REGION 1..9: note = epitope) [compound 2388]
- Epitope sequence binding to IgE antibody, rank of the sequence (Key/Preferably/More preferably) [6]: Key

Substance: 1562 (QVPLVQQQQF; REGION 1..10: note = epitope) [compound 1562]
- Rank of partial sequence as epitope binding to IgE antibody [3]: More preferably

Substance: 2617 (SKRV; REGION 1..4: note = epitope) [compound 2617]
- Epitope sequence binding to IgE antibody, rank of the sequence [2]: Key
